Laboratory results reported in patent US20260137828A1, “COMPOSITIONS AND METHODS INVOLVING PROBIOTIC MOLECULES” (MICROSINTESIS INC., priority 2017, published 2026).

Key:
HilA = experiment: qPCR of HilA down-regulation in Salmonella; format: cell-based, Salmonella enterica typhimurium DT104; details: reference 16S, individual synthetic biopeptides, 50 μg per assay
Source text: The cell-free supernatant was separated using Sephadex G75 resin. The samples were separated and collected into fractions: Fraction 1 (>163000 Da), Fraction 2 (163000-14500 Da), Fraction 3 (14500-1300 Da), Fraction 4 (1300-110 Da), Fraction 5 (110-10 Da). The samples were collected and assayed by qPCR using Salmonella enterica typhimurium DT104 strain. The down-regulation of HilA was compared to the reference gene 16S.
The active fraction from G75 size exclusion chromatography was further separated using reverse phase chromatography. The fractions from the reverse phase: Fraction 1 (0-2 min), Fraction 2 (2-4 min), Fraction 3 (4-16 min), Fraction 4 (16-32 min), Fraction 5 (32-40 min), Fraction 6 (40-58 min). The fractions were dried and neutralized to remove acetonitrile and trifluoroacetic acid from the solvent. The dried fractions were assayed using the same qPCR assay conditions as above. The fractions were analyzed by de novo sequencing at the University of Guelph Advance Analytical center. The peptides from the active fractions of 6 batches were compared and common peptides from batches were deduced.
Additionally, the 1×sample from each probiotic culture was tested using the Salmonella qPCR assay described in example 1 or a Lactate Dehydrogenase (LDH) assay using either UPEC 099 or Staphylococcus aureus 81M. For the LDH assay the dried cell-free supernatant was resuspended into 5 mL of lysogeny broth and inoculated with either UPEC 099 or Staphylococcus aureus 81M and incubated for 4 hours. After incubation, the samples were centrifuged and the supernatant was assayed. A 100 μL aliquot of supernatant was added to 1 mL mammalian HT29 cells at 1×10^6 cells per mL in a 12-well plate. The samples were incubated for 45 minutes at 37° C. and 5% CO2. The supernatant was then assayed using the manufacture's protocol (Pierce LDH Cytotoxicity assay kit, Thermo Scientific, Rockford, Il, USA). The percent inhibition was calculated using the no treatment control and a detergent lysed control using the formula provided in the protocol (Table 3).

HylA = details: reference GapA, individual synthetic biopeptides, 50 μg per assay
Procedure: The La-5 cell-free supernatant used for these experiments was batch D4. […] Strain 1 alias UPEC99 and strain 2 alias UPEC804. The strains were cultured on LB agar. Two different media were tested LB and artificial urine medium.
The UPEC were grown for 4 hours in the presence of cell-free supernatant. The cells were harvested and the RNA was extracted. The RNA was treated with DNAse I to remove genomic DNA. The RNA was used as a template to make cDNA. The cDNA was assayed by qPCR and the gene expression was normalized to a reference gene and compared to a without cell-free media control.
The synthetic bio-peptides were analyzed at 50 μg per assay.

MRSA = details: after a 24 hour incubation; cited from earlier work
[1] = tested on: Staphylococcus pseudintermedius (strain alias C260 22-2011 dtqa); experiment: Cefoxitin MIC testing with and without cell-free supernatant; format: cell-based; details: MSRP C260, Lysogeny Broth
Source text: (§1) Three methicillin resistant Staphylococci (MRS) strains were used in these experiments: 1) Staphylococcus pseudintermedius (strain alias C260 22-2011 dtqa), a clinical isolate from a dog skin infection; 2) Staphylococcus aureus (strain alias LA-414M SPA t034), a livestock-associated strain isolated from beef purchased from a grocery store in Charlottetown, PEI, Canada; and 3) Staphylococcus aureus (strain alias 81M SPA t008), isolated from poultry meat purchased from a grocery store in Charlottetown, PEI, Canada. All three MRS strains were provided by the Atlantic Veterinary College (AVC) at the University of Prince Edward Island. The methicillin-resistance of these strains was confirmed by AVC staff using an oxacillin disk diffusion method. The strains were originally cultured on sheep blood agar slants, and then transferred to lysogeny broth agar plates. Cefoxitin resuspended in methanol was used for antibiotic resistance testing, and growth was tested in two different media types, standard Lysogeny Broth and standard BBL™ Cation-Adjusted Mueller-Hinton Medium (Becton, Dickinson and Company). The minimum inhibitory concentrations (MICs) of the cefoxitin was determined for each strain in each respective medium in the presence and absence of the cell-free supernatant. Assays were performed according to the Clinical and Laboratory Standards Institute (CLSI) guidelines for MIC testing of Staphylococcal species [CLSI, 2015] as well as the European Committee for Antimicrobial Susceptibility Testing (EUCAST) of the European Society of Clinical Microbiology and Infectious Diseases [EUCAST, 2003].
(§2) The protocol for MIC testing was as follows. The cell-free supernatants were resuspended in the respective media and filter sterilized through a […] pore size filter. The required concentration of dried cell free supernatant was weighed and added at concentrations ranging from 0-60 mg/mL. Cefoxitin was added to obtain final concentrations ranging from 0-250 μg/mL. Cultures of each respective strain were grown overnight in either lysogeny broth or Mueller Hinton for 16-20 hours at 37° C. and 200 rpm shaking in aerobic conditions to achieve optical densities at 600 nm (OD600) of 1.2-1.6. […] The cultures (150 μL) were grown in a 96-well clear flat-bottom microtiter plate. The microtiter plate was then covered in parafilm and incubated at 35° C.±2° C. for 24 hours. Following incubation, microplates were read at 600 nm using a microplate reader. […] The data is the average from two technical replicates from two biological replicates.

[2] = tested on: Staphylococcus aureus (strain alias LA-414M SPA t034); experiment: as above; format: cell-based; details: MRSA LA 414M
Source text: as §1, §2

[3] = tested on: Staphylococcus aureus (strain alias 81M SPA t008); experiment: Cefoxitin MIC testing with and without cell-free supernatant or size exclusion fractions; format: cell-based
Source text: as §1, §2
For the size exclusion chromatography the sample was separated using a Sephadex G75 resin. The samples were separated and collected into fractions: Fraction 1 (>163000 Da), Fraction 2 (163000-14500 Da), Fraction 3 (14500-1300 Da), Fraction 4 (1300-110 Da), Fraction 5 (110-10 Da).

Compound: YPVEPF
- Fold down-regulation (HilA): 0.68 Fold
- Fold down-regulation (HylA): 1.03 Fold

Compound: CVLPPK
- Fold down-regulation (HilA): 3.75 Fold
- Fold down-regulation (HylA): 3.20 Fold

Compound: HLLPLP
- Fold down-regulation (HilA): 2.93 Fold
- Fold down-regulation (HylA): 2.64 Fold

Compound: MALPPK
- Fold down-regulation (HilA): 19.56 Fold
- Fold down-regulation (HylA): 9.06 Fold

Compound: Lactobacillus acidophilus
- MRSA cells eliminated (MRSA): 99%

Compound: YPPGGP
- Fold down-regulation (HilA): 2.93 Fold
- Fold down-regulation (HylA): 3.56 Fold

Compound: CO[C@@]1(NC(=O)Cc2cccs2)C(=O)N2C(C(=O)O)=C(COC(N)=O)CS[C@@H]21 [cefoxitin]
- Range of Cefoxitin concentration to inhibition growth to O.D. <0.1 ([1]; 0 mg/mL dried cell-free supernatant): 125 to 175 µg/mL
- Range of Cefoxitin concentration to inhibition growth to O.D. <0.1 ([1]; 5 mg/mL dried cell-free supernatant): 50 to 75 µg/mL
- Range of Cefoxitin concentration to inhibition growth to O.D. <0.1 ([1]; 30 mg/mL dried cell-free supernatant): 20 to 30 µg/mL
- Range of Cefoxitin concentration to inhibition growth to O.D. <0.1 ([1]; 60 mg/mL dried cell-free supernatant): 20 to 30 µg/mL
- Range of Cefoxitin concentration to inhibition growth to O.D. <0.1 ([2]; Lysogeny Broth, 0 mg/mL dried cell-free supernatant): 30 to 40 µg/mL
- Range of Cefoxitin concentration to inhibition growth to O.D. <0.1 ([2]; Lysogeny Broth, 5 mg/mL dried cell-free supernatant): 15 to 20 µg/mL
- Range of Cefoxitin concentration to inhibition growth to O.D. <0.1 ([2]; Lysogeny Broth, 30 mg/mL dried cell-free supernatant): 15 to 20 µg/mL
- Range of Cefoxitin concentration to inhibition growth to O.D. <0.1 ([2]; Lysogeny Broth, 60 mg/mL dried cell-free supernatant): 10 to 15 µg/mL
- Range of Cefoxitin concentration to inhibition growth to O.D. <0.1 ([2]; Mueller-Hinton Broth, 0 mg/mL dried cell-free supernatant): 50 to 60 µg/mL
- Range of Cefoxitin concentration to inhibition growth to O.D. <0.1 ([2]; Mueller-Hinton Broth, 5 mg/mL dried cell-free supernatant): 40 to 50 µg/mL
- Range of Cefoxitin concentration to inhibition growth to O.D. <0.1 ([2]; Mueller-Hinton Broth, 30 mg/mL dried cell-free supernatant): 20 to 30 µg/mL
- Range of Cefoxitin concentration to inhibition growth to O.D. <0.1 ([2]; Mueller-Hinton Broth, 60 mg/mL dried cell-free supernatant): 20 to 30 µg/mL
- Range of Cefoxitin concentration to inhibition growth to O.D. <0.1 ([3]; MRSA 81M, Lysogeny Broth, 0 mg/mL dried cell-free supernatant): 75 to 125 µg/mL
- Range of Cefoxitin concentration to inhibition growth to O.D. <0.1 ([3]; MRSA 81M, Lysogeny Broth, 5 mg/mL dried cell-free supernatant): 40 to 50 µg/mL
- Range of Cefoxitin concentration to inhibition growth to O.D. <0.1 ([3]; MRSA 81M, Lysogeny Broth, 30 mg/mL dried cell-free supernatant): 30 to 40 µg/mL
- Range of Cefoxitin concentration to inhibition growth to O.D. <0.1 ([3]; MRSA 81M, Lysogeny Broth, 60 mg/mL dried cell-free supernatant): 30 to 40 µg/mL
- Range of Cefoxitin concentration to inhibition growth to O.D. <0.1 ([3]; MRSA 81M, Mueller-Hinton Broth, 0 mg/mL dried cell-free supernatant): 75 to 100 µg/mL
- Range of Cefoxitin concentration to inhibition growth to O.D. <0.1 ([3]; MRSA 81M, Mueller-Hinton Broth, 5 mg/mL dried cell-free supernatant): 40 to 50 µg/mL
- Range of Cefoxitin concentration to inhibition growth to O.D. <0.1 ([3]; MRSA 81M, Mueller-Hinton Broth, 30 mg/mL dried cell-free supernatant): 30 to 40 µg/mL
- Range of Cefoxitin concentration to inhibition growth to O.D. <0.1 ([3]; MRSA 81M, Mueller-Hinton Broth, 60 mg/mL dried cell-free supernatant): 20 to 30 µg/mL
- Range of Cefoxitin concentration to inhibition growth to O.D. <0.1 ([3]; Staphylococcus aureus 81M, control, cefoxitin only (0 mg/mL), Table 5): 60 to 75 µg/mL

Compound: LKPTPEGD
- Fold down-regulation (HilA): 11.08 Fold
- Fold down-regulation (HylA): 4.69 Fold
